Test system: CD8+ T cells from HLA-A*02+ buffy coats of healthy donors
Test: In vitro priming of CD8+ T cells with pMHC/anti-CD28 coated beads (aAPC), tetramer readout
Format: cell-based, human
Conditions: healthy HLA-A*02+ donors; three in vitro stimulations; TUMAP-specific tetramer+ CD8+ T cells
Experimental: To perform in vitro stimulations by artificial antigen presenting cells (aAPC) loaded with peptide-MHC complex (pMHC) and anti-CD28 antibody, first we isolated PBMCs (peripheral blood mononuclear cells) from fresh HLA-A*02+ buffy coats by using standard density gradient separation medium (PAA, Cölbe, Germany). Buffy coats were either obtained from the Blood Bank Tubingen or from the Katharinenhospital Stuttgart. Isolated PBMCs were incubated overnight in T-cell medium (TCM) for human in vitro priming consisting of RPMI-Glutamax (Invitrogen, Karlsruhe, Germany) supplemented with 10% heat inactivated human AB serum (PAA, Cölbe, Germany), 100 U/ml Penicillin/100 μg/ml Streptomycin (Cambrex, Verviers, Belgium), 1 mM sodium pyruvate (CC Pro, Neustadt, Germany) and 20 μg/ml Gentamycin (Cambrex). CD8+ lymphocytes were isolated using the CD8+ MACS positive selection kit (Miltenyi, Bergisch Gladbach, Germany) according to the manufacturer's instructions. […] 800.000 beads/200 μl were coated in 96-well plates in the presence of 600 ng biotin anti-CD28 plus 200 ng relevant biotin-pMHC (high density beads) or 2 ng relevant plus 200 ng irrelevant (pMHC library) MHC (low density beads). Stimulations were initiated in 96-well plates by co-incubating 1×10^6 CD8+ T cells with 2×10^5 washed coated beads in 200 μl TCM supplemented with 5 ng/ml IL-12 (PromoCell) for 3-4 days at 37° C. Half of the medium was then exchanged by fresh TCM supplemented with 80 U/ml IL-2 and incubating was continued for 3-4 days at 37° C. This stimulation cycle was performed for a total of three times. […] Peptide specific cells were calculated as percentage of total CD8+ T cells. Evaluation of tetrameric analysis was done using the software FCS Express (De Novo Software). In vitro priming of specific tetramer+CD8+ lymphocytes was detected by appropriate gating and by comparing to negative control stimulations.

Going from `CSCC[C@H](NC(=O)[C@@H](N)[C@@H](C)O)C(=O)N[C@@H](CC(C)C)C(=O)N[C@@H](C)C(=O)N[C@@H](CCCNC(=N)N)C(=O)N[C@@H](CC(C)C)C(=O)N[C@@H](C)C(=O)N[C@@H](CO)C(=O)N[C@@H](C)C(=O)O` [CSP-001] to “ALWAWPSEL (listed as Homo sapiens) [BCA-002, HLA-A*02 peptide from BCAN]”, the Positive donors/donors tested falls from 100% to 75%.

“AMTQLLAGV (listed as Homo sapiens) [TNC-001, HLA-A*02 peptide from TNC]” and “FLGDPPEKL (listed as Homo sapiens) [BCA-001, HLA-A*02 peptide from BCAN]” are the same in Positive donors/donors tested: 60% for the first, 60% for the second.

First: GLQSQIAQV (listed as Homo sapiens) [NES-001, HLA-A*02 peptide from NES]
Second: GLWHHQTEV (listed as Homo sapiens) [NRCAM-001, HLA-A*02 peptide from NRCAM]
The Positive donors/donors tested of the first is lower: 75% for the first, 86% for the second.

Going from “KIQEILTQV (listed as Homo sapiens) [IGF2BP3-001, HLA-A*02 peptide from IGF2BP3]” to “LTFGDVVAV (listed as Homo sapiens) [FABP7-001, HLA-A*02 peptide from FABP7]”, the Positive donors/donors tested rises from 50% to 100%.

First: NLDTLMTYV (listed as Homo sapiens) [NLGN4X-001, HLA-A*02 peptide from NLGN4X]
Second: QLLAGVFLA (listed as Homo sapiens) [TNC-002, HLA-A*02 peptide from TNC]
The Positive donors/donors tested of the first is higher: 100% for the first, 50% for the second.

First: SLNELRVLL (listed as Homo sapiens) [CLIP2-001, HLA-A*02 peptide from CLIP2]
Second: TLVGIIVGV (listed as Homo sapiens) [PDPN-001, HLA-A*02 peptide from PDPN]
The Positive donors/donors tested of the first is higher: 75% for the first, 60% for the second.

In the case of “YLIAGIISL (listed as Homo sapiens) [SLCO1C1-001, HLA-A*02 peptide from SLCO1C1]”, the Positive donors/donors tested was 60%.

Compared with `CSCC[C@H](NC(=O)[C@@H](N)[C@@H](C)O)C(=O)N[C@@H](CC(C)C)C(=O)N[C@@H](C)C(=O)N[C@@H](CCCNC(=N)N)C(=O)N[C@@H](CC(C)C)C(=O)N[C@@H](C)C(=O)N[C@@H](CO)C(=O)N[C@@H](C)C(=O)O` [CSP-001], “ALWAWPSEL (listed as Homo sapiens) [BCA-002, HLA-A*02 peptide from BCAN]” is lower in Positive wells/wells tested: 57% for the first, 35% for the second.

Compared with “AMTQLLAGV (listed as Homo sapiens) [TNC-001, HLA-A*02 peptide from TNC]”, “FLGDPPEKL (listed as Homo sapiens) [BCA-001, HLA-A*02 peptide from BCAN]” is lower in Positive wells/wells tested: 30% for the first, 5% for the second.

Going from “GLQSQIAQV (listed as Homo sapiens) [NES-001, HLA-A*02 peptide from NES]” to “GLWHHQTEV (listed as Homo sapiens) [NRCAM-001, HLA-A*02 peptide from NRCAM]”, the Positive wells/wells tested rises from 38% to 39%.

Compared with “KIQEILTQV (listed as Homo sapiens) [IGF2BP3-001, HLA-A*02 peptide from IGF2BP3]”, “LTFGDVVAV (listed as Homo sapiens) [FABP7-001, HLA-A*02 peptide from FABP7]” is higher in Positive wells/wells tested: 21% for the first, 27% for the second.

Compared with “NLDTLMTYV (listed as Homo sapiens) [NLGN4X-001, HLA-A*02 peptide from NLGN4X]”, “QLLAGVFLA (listed as Homo sapiens) [TNC-002, HLA-A*02 peptide from TNC]” is lower in Positive wells/wells tested: 62% for the first, 14% for the second.

Going from “SLNELRVLL (listed as Homo sapiens) [CLIP2-001, HLA-A*02 peptide from CLIP2]” to “TLVGIIVGV (listed as Homo sapiens) [PDPN-001, HLA-A*02 peptide from PDPN]”, the Positive wells/wells tested rises from 6% to 11%.

In the case of “YLIAGIISL (listed as Homo sapiens) [SLCO1C1-001, HLA-A*02 peptide from SLCO1C1]”, the Positive wells/wells tested was 7%.

Test system: precursor T cells of glioblastoma patients
Test: In vitro immunogenicity in a small number of glioblastoma patients
Format: cell-based, human
Conditions: compared with healthy donors

With “ALWAWPSEL (listed as Homo sapiens) [BCA-002, HLA-A*02 peptide from BCAN]” the “Immunogenicity in glioblastoma patients” value was “immunogenic to a similar extent compared with healthy donors”.
With “NLDTLMTYV (listed as Homo sapiens) [NLGN4X-001, HLA-A*02 peptide from NLGN4X]” the “Immunogenicity in glioblastoma patients” value was “immunogenic to a similar extent compared with healthy donors”.

Test system: granzyme B-secreting CTLs
Test: not given
Conditions: type 1 diabetic patients and antibody-positive relatives compared with healthy donors; cited from earlier work

For “NLAQDLATV (listed as Homo sapiens) [GFAP-001, HLA-A*02 peptide from GFAP]”, the “Reactivity of granzyme B-secreting CTLs” value is given as “enhanced reactivity”.

— US11136352B2, “Immunotherapy against several tumors including neuronal and brain tumors” (IMMATICS BIOTECHNOLOGIES GMBH, priority 2008, dated 2021)
